Source: ChEMBL document CHEMBL5465560, “Selectivity Literature for EUbOPEN Chemogenomic Library” (2024)

Key:
[1] = biological target: Tyrosine-protein kinase receptor Tie-1 (Homo sapiens) (UniProt P35590); assay: Selectivity interaction (KinomeScan (DiscoverX)) EUB0000699a TIE1; settings: at 10 µM
[2] = biological target: SRSF protein kinase 2 (Homo sapiens) (UniProt P78362); settings: at 10 µM
[3] = biological target: MAP kinase-interacting serine/threonine-protein kinase 1 (Homo sapiens) (UniProt Q9BUB5); assay: Selectivity interaction (KinomeScan (DiscoverX)) EUB0000229b MKNK1; settings: at 10 µM
[4] = biological target: Tyrosine-protein kinase receptor Tie-1 (Homo sapiens) (UniProt P35590); assay: Selectivity interaction (KinomeScan (DiscoverX)) EUB0000655a TIE1; settings: at 10 µM
[5] = biological target: Citron Rho-interacting kinase (Homo sapiens) (UniProt O14578); assay: Selectivity interaction (KinomeScan (DiscoverX)) EUB0000655a CIT; settings: at 10 µM
[6] = biological target: Tyrosine-protein kinase FRK (Homo sapiens) (UniProt P42685); assay: Selectivity interaction (ProQinase) EUB0000171b FRK
Tyrosine-protein kinase FRK (Homo sapiens), sequence (P42685 whole entry): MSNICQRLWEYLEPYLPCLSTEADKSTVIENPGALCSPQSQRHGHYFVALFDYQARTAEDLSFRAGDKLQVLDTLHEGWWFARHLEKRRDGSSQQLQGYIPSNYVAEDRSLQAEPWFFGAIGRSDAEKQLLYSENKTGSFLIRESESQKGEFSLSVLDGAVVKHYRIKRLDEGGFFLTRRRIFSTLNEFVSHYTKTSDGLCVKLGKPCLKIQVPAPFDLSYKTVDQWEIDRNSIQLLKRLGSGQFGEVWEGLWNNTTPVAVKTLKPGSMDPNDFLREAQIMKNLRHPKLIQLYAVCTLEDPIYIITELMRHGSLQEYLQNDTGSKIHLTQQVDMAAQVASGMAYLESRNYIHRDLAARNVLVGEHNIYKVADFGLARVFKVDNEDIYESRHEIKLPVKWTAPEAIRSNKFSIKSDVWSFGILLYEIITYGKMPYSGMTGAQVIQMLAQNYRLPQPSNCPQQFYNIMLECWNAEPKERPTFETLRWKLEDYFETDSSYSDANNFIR

[7] = system: Proto-oncogene tyrosine-protein kinase receptor Ret (Homo sapiens), P07949 [R813Q]; assay: (§1) Selectivity interaction (ProQinase) EUB0000171b RET
[8] = biological target: Proto-oncogene tyrosine-protein kinase receptor Ret (Homo sapiens, UniProt P07949); assay: as §1
Proto-oncogene tyrosine-protein kinase receptor Ret, sequence (P07949 whole entry): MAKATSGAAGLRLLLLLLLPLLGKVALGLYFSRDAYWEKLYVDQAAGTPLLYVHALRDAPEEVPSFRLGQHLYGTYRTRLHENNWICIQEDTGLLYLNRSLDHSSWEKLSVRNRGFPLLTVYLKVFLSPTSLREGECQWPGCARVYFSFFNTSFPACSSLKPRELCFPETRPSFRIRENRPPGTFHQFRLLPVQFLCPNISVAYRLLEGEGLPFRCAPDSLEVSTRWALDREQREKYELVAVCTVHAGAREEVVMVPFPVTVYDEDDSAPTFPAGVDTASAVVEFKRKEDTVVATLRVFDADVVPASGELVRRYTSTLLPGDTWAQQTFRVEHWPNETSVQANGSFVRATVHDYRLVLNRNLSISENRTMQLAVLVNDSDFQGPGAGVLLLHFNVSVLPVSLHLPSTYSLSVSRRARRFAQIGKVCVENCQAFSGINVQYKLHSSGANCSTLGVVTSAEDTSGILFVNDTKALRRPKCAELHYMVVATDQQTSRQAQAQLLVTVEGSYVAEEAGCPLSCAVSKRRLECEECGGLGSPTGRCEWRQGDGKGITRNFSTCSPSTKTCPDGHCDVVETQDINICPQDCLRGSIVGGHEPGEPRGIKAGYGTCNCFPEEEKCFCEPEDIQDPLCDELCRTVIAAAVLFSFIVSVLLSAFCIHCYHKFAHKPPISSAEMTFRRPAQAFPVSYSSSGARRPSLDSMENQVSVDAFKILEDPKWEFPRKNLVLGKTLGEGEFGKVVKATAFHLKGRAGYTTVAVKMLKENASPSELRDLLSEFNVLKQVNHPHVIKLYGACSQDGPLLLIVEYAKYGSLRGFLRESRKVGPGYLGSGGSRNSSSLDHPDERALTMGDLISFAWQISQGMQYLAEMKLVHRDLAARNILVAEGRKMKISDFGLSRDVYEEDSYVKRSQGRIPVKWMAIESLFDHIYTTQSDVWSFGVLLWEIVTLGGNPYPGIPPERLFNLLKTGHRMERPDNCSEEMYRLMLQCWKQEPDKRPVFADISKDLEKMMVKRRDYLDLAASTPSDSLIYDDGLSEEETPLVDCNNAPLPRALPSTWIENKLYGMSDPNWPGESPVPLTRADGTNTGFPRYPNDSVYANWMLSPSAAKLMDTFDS

[9] = system: Proto-oncogene tyrosine-protein kinase receptor Ret (Homo sapiens), P07949 [V804M]; assay: as §1
[10] = system: Proto-oncogene tyrosine-protein kinase receptor Ret (Homo sapiens), P07949 [S891A]; assay: as §1
[11] = system: Proto-oncogene tyrosine-protein kinase receptor Ret (Homo sapiens), P07949 [V804L]; assay: as §1
Proto-oncogene tyrosine-protein kinase receptor Ret (Homo sapiens), P07949 [V804L], sequence (P07949 whole entry V804L): as the sequence (P07949 whole entry) above, with V804L counted along it

[12] = system: Proto-oncogene tyrosine-protein kinase receptor Ret (Homo sapiens), P07949 [Y791F]; assay: as §1
[13] = system: Proto-oncogene tyrosine-protein kinase receptor Ret (Homo sapiens), P07949 [G691S]; assay: as §1
[14] = system: Proto-oncogene tyrosine-protein kinase receptor Ret (Homo sapiens), P07949 [M918T]; assay: as §1
Proto-oncogene tyrosine-protein kinase receptor Ret (Homo sapiens), P07949 [M918T], sequence (P07949 whole entry M918T): as the sequence (P07949 whole entry) above, with M918T counted along it

[15] = system: Proto-oncogene tyrosine-protein kinase receptor Ret (Homo sapiens), P07949 [E762Q]; assay: as §1
[16] = system: Proto-oncogene tyrosine-protein kinase receptor Ret (Homo sapiens), P07949 [R749T]; assay: as §1
Proto-oncogene tyrosine-protein kinase receptor Ret (Homo sapiens), P07949 [R749T], sequence (P07949 whole entry R749T): as the sequence (P07949 whole entry) above, with R749T counted along it

[17] = biological target: T1, Dual specificity protein kinase TTK (Homo sapiens) (UniProt P33981); assay: Selectivity interaction (KinomeScan (DiscoverX)) EUB0000666a TTK; settings: at 10 µM
T1 sequence (whole entry): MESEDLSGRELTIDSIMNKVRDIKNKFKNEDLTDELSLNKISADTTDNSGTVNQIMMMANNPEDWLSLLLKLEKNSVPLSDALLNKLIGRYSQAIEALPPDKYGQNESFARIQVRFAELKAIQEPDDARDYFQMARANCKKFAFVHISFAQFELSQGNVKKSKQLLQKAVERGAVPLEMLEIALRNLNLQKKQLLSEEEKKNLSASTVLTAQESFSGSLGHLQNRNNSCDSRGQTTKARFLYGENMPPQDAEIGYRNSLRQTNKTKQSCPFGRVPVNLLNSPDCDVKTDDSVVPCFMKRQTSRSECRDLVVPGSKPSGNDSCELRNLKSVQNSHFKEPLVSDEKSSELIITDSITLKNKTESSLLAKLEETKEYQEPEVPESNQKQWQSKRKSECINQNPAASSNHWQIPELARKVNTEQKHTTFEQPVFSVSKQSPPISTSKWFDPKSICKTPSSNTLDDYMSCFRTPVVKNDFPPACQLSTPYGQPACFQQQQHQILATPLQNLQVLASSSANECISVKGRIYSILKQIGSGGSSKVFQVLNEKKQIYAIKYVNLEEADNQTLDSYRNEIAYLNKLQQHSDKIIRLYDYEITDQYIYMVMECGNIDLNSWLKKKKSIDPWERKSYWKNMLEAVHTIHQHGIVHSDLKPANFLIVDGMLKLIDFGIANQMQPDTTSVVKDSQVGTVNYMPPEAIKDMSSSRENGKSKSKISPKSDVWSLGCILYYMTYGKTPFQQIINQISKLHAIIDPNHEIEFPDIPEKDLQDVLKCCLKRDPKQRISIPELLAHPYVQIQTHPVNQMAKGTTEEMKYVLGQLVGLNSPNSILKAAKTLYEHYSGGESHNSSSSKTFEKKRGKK

[18] = biological target: T2, Non-receptor tyrosine-protein kinase TYK2 (Homo sapiens, UniProt P29597); assay: Selectivity interaction (KinomeScan (DiscoverX)) EUB0000666a TYK2; settings: at 10 µM
[19] = biological target: Phosphatidylinositol 4,5-bisphosphate 3-kinase catalytic subunit alpha isoform (Homo sapiens) (UniProt P42336); settings: at 10 µM
[20] = biological target: T2, Non-receptor tyrosine-protein kinase TYK2; assay: Selectivity interaction (Kinase panel (33PanQinase(R) Activity Assay)) EUB0000877a TYK2
[21] = biological target: Macrophage colony-stimulating factor 1 receptor (Homo sapiens) (UniProt P07333); settings: at 10 µM
[22] = biological target: Vascular endothelial growth factor receptor 2 (Homo sapiens, UniProt P35968); assay: Selectivity interaction (SelectScreen profiling (Invitrogen)) EUB0000607a KDR; settings: at 2 µM
[23] = biological target: Serine/threonine-protein kinase N1 (Homo sapiens, UniProt Q16512); assay: Selectivity interaction (KinomeScan (DiscoverX)) EUB0000618a PKN1; settings: at 10 µM
[24] = biological target: T3, Phosphatidylinositol 5-phosphate 4-kinase type-2 gamma (Homo sapiens) (UniProt Q8TBX8); assay: Selectivity interaction (Ambit KINOMEscan and KiNATiv profiling in Jurkat cells) EUB0000090b PIP4K2C; type: cell-based; settings: at 1 µM
T3 sequence (whole entry): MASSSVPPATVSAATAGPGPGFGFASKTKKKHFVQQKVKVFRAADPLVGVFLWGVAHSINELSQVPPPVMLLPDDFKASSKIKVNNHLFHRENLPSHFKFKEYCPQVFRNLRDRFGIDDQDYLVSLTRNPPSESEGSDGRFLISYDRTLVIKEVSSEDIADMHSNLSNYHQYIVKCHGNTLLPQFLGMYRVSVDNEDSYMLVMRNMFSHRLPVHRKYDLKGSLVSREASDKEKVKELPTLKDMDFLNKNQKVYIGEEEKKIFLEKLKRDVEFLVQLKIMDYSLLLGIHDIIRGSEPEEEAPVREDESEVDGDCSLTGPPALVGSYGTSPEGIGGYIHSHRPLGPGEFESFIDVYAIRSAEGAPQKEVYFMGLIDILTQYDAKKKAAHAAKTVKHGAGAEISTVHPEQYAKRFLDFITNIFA

[25] = biological target: Microtubule-associated serine/threonine-protein kinase 1 (Homo sapiens) (UniProt Q9Y2H9); assay: Selectivity interaction (Ambit KINOMEscan and KiNATiv profiling in Jurkat cells) EUB0000090b MAST1; type: cell-based; settings: at 1 µM

Structure (SMILES): CCN(CC)CCCCNc1ncc2cc(-c3cc(OC)cc(OC)c3)c(NC(=O)NC(C)(C)C)nc2n1
- % of control [1]: 12%
- % of control [2]: 100%

Structure (SMILES): COc1cc(N(C)c2ccnc3ccc(C(F)(F)F)cc23)cc(OC)c1OC
- % binding [3]: 89%

Structure (SMILES): CN(C)CCOc1ccc(-c2nc(-c3ccncc3)c(-c3ccc4c(c3)CC/C4=N\O)[nH]2)cc1
- % of control [4]: 44%
- % of control [5]: 0.8%

Structure (SMILES): C=CC(=O)Nc1cccc(C(=O)Nc2ccc(Nc3cc(-c4[nH]c(SC)nc4C)ccn3)cc2)c1
- % of control ([6]; at 1 µM): 99%
- % of control ([6]; at 5 µM): 75%
- % of control ([7]; at 1 µM): 98%
- % of control ([7]; at 5 µM): 75%
- % of control ([8]; at 1 µM): 87%
- % of control ([8]; at 5 µM): 72%
- % of control ([9]; at 1 µM): 98%
- % of control ([9]; at 5 µM): 90%
- % of control ([10]; at 1 µM): 95%
- % of control ([10]; at 5 µM): 74%
- % of control ([11]; at 1 µM): 88%
- % of control ([11]; at 5 µM): 80%
- % of control ([12]; at 1 µM): 96%
- % of control ([12]; at 5 µM): 71%
- % of control ([13]; at 1 µM): 90%
- % of control ([13]; at 5 µM): 77%
- % of control ([14]; at 1 µM): 97%
- % of control ([14]; at 5 µM): 82%
- % of control ([15]; at 1 µM): 95%
- % of control ([15]; at 5 µM): 78%
- % of control ([16]; at 1 µM): 96%
- % of control ([16]; at 5 µM): 76%

Structure (SMILES): O=C(NOC[C@H](O)CO)c1ccc(F)c(F)c1Nc1ccc(I)cc1F
- % of control [17]: 100%
- % of control [18]: 100%

Structure (SMILES): CCC(=O)N1CC[C@H](Nc2ncnc3c2CN(c2cnc(OC)c(C(F)(F)F)c2)CC3)C1 [LENIOLISIB]
- % of inhibition [19]: 96%
- IC50 [20]: > 10 µM

Structure (SMILES): Cc1cc([C@@H](C)Nc2ccccc2C(=O)O)c2nc(N3CCOCC3)cc(=O)n2c1 [AZD-6482]
- % of control [21]: 94%

Structure (SMILES): CNC(=O)Nc1ccc(-c2nc(N3CC4CCC(C3)O4)c3cnn(C4CCC5(CC4)OCCO5)c3n2)cc1
- % of inhibition [22]: 7%

Structure (SMILES): O[C@H]1CC[C@H](Nc2ncc3nc(Nc4c(F)cc(F)cc4F)n([C@H]4CCOC4)c3n2)CC1
- % of control [23]: 91%

Structure (SMILES): CN(C)C/C=C/C(=O)Nc1ccc(C(=O)N2CCCC(Nc3ncc(Cl)c(-c4c[nH]c5ccccc45)n3)C2)cc1 (stereo unspecified)
- % of control [24]: 91%
- % of control [25]: 95%
